From ChEMBL document CHEMBL3763148, “Synthesis, structure elucidation, DNA-PK and PI3K and anti-cancer activity of 8- and 6-aryl-substituted-1-3-benzoxazines” (Eur J Med Chem, 2016)

How the values were obtained:
[1] = target: T1, Phosphatidylinositol 4,5-bisphosphate 3-kinase catalytic subunit beta isoform (Homo sapiens, UniProt P42338); experiment: Inhibition of PI3Kbeta (unknown origin) at 10 uM incubated for 60 mins by kinase-glo luminescence assay
Target sequence in this assay (P42338 whole entry, looked up, canonical isoform): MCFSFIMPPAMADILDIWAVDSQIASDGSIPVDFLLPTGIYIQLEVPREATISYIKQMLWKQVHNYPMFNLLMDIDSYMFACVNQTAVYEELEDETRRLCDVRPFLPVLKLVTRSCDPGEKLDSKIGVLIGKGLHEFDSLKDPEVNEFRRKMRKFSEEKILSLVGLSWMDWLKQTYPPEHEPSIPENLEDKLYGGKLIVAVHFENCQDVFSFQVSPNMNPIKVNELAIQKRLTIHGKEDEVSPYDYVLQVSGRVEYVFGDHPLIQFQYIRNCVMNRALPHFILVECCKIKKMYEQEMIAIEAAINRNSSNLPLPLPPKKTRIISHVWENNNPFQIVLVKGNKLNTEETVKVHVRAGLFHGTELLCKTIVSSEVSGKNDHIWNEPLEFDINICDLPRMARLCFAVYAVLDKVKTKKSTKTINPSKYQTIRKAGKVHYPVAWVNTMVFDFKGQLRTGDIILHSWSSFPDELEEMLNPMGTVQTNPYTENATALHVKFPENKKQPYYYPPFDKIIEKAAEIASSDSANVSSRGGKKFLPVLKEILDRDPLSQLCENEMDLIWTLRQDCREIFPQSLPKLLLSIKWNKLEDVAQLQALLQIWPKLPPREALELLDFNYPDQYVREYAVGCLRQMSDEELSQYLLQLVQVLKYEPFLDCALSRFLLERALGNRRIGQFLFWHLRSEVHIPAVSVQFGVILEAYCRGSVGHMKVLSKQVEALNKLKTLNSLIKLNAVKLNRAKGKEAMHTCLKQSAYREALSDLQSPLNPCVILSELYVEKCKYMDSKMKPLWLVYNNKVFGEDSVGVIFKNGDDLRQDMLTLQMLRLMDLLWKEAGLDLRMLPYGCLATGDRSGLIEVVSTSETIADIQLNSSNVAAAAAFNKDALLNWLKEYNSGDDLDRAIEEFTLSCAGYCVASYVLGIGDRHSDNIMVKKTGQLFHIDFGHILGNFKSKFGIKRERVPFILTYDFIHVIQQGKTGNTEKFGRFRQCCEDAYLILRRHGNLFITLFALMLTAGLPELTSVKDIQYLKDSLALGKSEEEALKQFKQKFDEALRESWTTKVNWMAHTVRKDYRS

[2] = target: T2, Phosphatidylinositol 4,5-bisphosphate 3-kinase catalytic subunit alpha isoform (Homo sapiens, UniProt P42336); experiment: Inhibition of PI3Kalpha (unknown origin) incubated for 60 mins by kinase-glo luminescence assay
Malme-3M = experiment: Cytotoxicity against human MALME-3M cells assessed as cell growth inhibition at 10 uM after 48 hrs by SRB assay relative to control; type: functional; details: read-out: GI
[3] = Cytotoxicity against human Hs 578T cells assessed as cell growth inhibition at 10 uM after 48 hrs by SRB assay relative to control; type: functional; details: read-out: GI
[4] = Cytotoxicity against human SF539 cells assessed as cell growth inhibition at 10 uM after 48 hrs by SRB assay relative to control; type: functional; details: SF-539, 48 h, read-out: GI
SK-MEL-28 = experiment: Cytotoxicity against human SK-MEL-28 cells assessed as cell growth inhibition at 10 uM after 48 hrs by SRB assay relative to control; type: functional; details: SK-MEL-28, 48 h, read-out: GI
[5] = Cytotoxicity against human IGROV1 cells assessed as cell growth inhibition at 10 uM after 48 hrs by SRB assay relative to control; type: functional; details: IGROV-1, 48 h, read-out: GI
[6] = target: Phosphatidylinositol 4,5-bisphosphate 3-kinase catalytic subunit gamma isoform (Homo sapiens) (UniProt P48736); experiment: Inhibition of PI3Kgamma (unknown origin) at 10 uM incubated for 60 mins by kinase-glo luminescence assay
[7] = Cytotoxicity against human SF295 cells assessed as cell growth inhibition at 10 uM after 48 hrs by SRB assay relative to control; type: functional; details: SF-295, 48 h, read-out: GI
Homo sapiens = organism: Homo sapiens; experiment: Selectivity ratio of IC50 for PI3Kbeta (unknown origin) to IC50 for human DNA-PK
[8] = target: T2, Phosphatidylinositol 4,5-bisphosphate 3-kinase catalytic subunit alpha isoform; experiment: Inhibition of PI3Kalpha (unknown origin) at 10 uM incubated for 60 mins by kinase-glo luminescence assay
[9] = target: T1, Phosphatidylinositol 4,5-bisphosphate 3-kinase catalytic subunit beta isoform; experiment: Inhibition of PI3Kbeta (unknown origin) incubated for 60 mins by kinase-glo luminescence assay
Target sequence in this assay (P42338 whole entry, canonical isoform): as the sequence (P42338 whole entry, looked up, canonical isoform) above

[10] = target: DNA-dependent protein kinase catalytic subunit (Homo sapiens, UniProt P78527); experiment: Inhibition of human DNA-PK using EPPLSQEAFADLWKK as substrate at 10 uM by HTRF assay
[11] = target: T3, Phosphatidylinositol 4,5-bisphosphate 3-kinase catalytic subunit delta isoform (Homo sapiens) (UniProt O00329); experiment: Inhibition of PI3Kdelta (unknown origin) at 10 uM incubated for 60 mins by kinase-glo luminescence assay
T3 sequence (whole entry): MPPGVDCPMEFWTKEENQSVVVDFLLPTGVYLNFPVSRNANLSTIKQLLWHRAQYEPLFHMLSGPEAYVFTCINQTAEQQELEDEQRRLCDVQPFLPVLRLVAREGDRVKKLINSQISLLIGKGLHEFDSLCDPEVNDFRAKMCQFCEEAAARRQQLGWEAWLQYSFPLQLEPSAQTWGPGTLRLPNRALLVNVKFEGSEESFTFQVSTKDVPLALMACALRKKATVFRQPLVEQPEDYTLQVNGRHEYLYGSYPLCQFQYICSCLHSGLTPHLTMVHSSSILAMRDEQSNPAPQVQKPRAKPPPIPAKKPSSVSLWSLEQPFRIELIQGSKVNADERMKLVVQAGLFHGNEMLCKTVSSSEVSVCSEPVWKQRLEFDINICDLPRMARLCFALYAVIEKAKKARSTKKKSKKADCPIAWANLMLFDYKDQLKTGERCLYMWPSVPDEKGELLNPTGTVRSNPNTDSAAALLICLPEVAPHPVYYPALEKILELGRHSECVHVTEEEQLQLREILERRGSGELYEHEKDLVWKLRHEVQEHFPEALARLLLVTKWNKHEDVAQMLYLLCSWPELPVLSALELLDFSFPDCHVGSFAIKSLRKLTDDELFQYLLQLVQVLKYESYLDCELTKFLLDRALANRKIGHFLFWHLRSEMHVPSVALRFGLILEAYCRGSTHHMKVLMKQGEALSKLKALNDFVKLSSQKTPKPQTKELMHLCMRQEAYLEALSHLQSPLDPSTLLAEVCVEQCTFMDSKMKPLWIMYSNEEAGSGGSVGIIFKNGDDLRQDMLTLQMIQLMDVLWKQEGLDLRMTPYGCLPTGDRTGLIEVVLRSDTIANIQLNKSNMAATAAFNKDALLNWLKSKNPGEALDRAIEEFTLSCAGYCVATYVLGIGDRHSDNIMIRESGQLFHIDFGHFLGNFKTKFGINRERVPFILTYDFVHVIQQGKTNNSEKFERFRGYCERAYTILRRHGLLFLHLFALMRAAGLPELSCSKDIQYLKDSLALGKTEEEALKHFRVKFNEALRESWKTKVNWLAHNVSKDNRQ

T2 sequence (P42336 whole entry, canonical isoform): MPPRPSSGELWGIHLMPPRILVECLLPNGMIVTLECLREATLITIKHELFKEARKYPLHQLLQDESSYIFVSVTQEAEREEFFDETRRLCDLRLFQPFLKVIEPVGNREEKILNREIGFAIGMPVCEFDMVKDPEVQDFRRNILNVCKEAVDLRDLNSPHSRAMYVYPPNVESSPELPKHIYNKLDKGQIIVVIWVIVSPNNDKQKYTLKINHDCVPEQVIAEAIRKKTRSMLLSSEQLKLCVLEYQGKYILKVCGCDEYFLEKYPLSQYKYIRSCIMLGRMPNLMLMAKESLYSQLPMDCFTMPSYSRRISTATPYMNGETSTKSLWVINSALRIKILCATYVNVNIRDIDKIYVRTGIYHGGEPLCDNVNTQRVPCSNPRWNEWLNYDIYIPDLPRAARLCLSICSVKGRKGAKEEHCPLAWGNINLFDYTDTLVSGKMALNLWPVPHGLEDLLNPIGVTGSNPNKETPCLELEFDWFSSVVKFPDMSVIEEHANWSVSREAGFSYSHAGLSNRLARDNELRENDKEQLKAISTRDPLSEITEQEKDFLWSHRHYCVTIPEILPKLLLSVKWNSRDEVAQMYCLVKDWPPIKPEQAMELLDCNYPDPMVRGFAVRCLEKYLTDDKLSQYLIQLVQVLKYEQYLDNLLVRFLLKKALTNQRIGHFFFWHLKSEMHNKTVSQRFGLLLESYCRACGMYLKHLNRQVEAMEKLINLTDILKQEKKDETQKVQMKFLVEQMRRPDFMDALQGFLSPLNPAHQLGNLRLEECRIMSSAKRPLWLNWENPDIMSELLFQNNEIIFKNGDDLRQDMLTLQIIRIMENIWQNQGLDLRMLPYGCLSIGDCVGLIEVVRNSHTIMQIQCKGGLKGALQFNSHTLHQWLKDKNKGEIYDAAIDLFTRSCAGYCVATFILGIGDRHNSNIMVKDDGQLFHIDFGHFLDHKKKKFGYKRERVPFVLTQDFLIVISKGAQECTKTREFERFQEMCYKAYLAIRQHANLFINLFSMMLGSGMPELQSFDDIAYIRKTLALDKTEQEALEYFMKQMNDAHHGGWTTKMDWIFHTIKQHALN
Sequence of Phosphatidylinositol 4,5-bisphosphate 3-kinase catalytic subunit gamma isoform (Homo sapiens) (P48736 whole entry, looked up, canonical isoform): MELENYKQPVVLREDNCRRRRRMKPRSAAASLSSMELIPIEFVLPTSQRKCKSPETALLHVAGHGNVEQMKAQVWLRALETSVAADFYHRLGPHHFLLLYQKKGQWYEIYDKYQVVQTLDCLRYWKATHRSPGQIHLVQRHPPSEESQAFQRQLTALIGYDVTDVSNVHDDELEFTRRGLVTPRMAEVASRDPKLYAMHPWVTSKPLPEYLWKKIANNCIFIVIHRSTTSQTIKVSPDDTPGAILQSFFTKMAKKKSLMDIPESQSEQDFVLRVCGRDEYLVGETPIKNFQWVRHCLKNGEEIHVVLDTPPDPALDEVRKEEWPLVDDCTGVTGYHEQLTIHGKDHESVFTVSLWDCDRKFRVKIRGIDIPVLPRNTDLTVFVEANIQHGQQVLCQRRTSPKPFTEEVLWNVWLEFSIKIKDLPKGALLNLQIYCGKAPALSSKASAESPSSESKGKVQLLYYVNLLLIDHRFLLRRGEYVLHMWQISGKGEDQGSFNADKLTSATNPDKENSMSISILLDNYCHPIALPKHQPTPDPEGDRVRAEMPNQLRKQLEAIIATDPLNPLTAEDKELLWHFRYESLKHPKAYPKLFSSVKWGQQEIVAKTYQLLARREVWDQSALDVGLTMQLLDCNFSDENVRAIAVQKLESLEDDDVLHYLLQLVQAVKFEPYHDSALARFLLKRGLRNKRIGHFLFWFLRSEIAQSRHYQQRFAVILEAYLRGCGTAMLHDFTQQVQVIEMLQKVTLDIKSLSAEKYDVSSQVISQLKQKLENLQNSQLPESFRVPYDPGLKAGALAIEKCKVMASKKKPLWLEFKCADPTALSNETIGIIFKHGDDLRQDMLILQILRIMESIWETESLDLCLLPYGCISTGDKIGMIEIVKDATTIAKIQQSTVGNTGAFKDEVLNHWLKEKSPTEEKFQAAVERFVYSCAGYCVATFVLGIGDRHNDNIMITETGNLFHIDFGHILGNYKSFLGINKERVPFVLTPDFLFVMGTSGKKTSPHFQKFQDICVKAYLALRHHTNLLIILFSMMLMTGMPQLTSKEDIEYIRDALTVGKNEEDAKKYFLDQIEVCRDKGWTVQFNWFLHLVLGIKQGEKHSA

SMILES | inhibition [1] | IC50 [2] | inhibition of growth at 10 µM (Malme-3M) | inhibition of growth at 10 µM [3] | inhibition of growth at 10 µM [4] | inhibition of growth at 10 µM (SK-MEL-28) | inhibition of growth at 10 µM [5] | inhibition [6] | inhibition of growth at 10 µM [7] | Ratio IC50 (Homo sapiens) | inhibition [8] | IC50 [9] | inhibition [10] | inhibition [11]
COc1ccc(-c2cccc3c(=O)nc(N4CCOCC4)oc23)cc1 | 22% | 2.8 µM | -4.08% | 11.1% | -2.27% | 2.38% | 0.87% | 7% | 2.78% | – | – | – | – | –
NC(=O)c1ccc(-c2cccc3c(=O)nc(N4CCOCC4)oc23)cc1 | 13% | > 10 µM | 14.6% | 2.8% | -1.74% | -3.25% | -3.1% | 10% | 6.07% | – | – | – | – | –
O=c1nc(N2CCOCC2)oc2c(-c3cccc4ccccc34)cccc12 | – | – | 24.8% | 16.2% | 15% | 5.64% | 24.6% | 29% | 10.8% | 8 | 34% | 5 µM | – | –
O=c1nc(N2CCOCC2)oc2c(-c3cccs3)cccc12 | 43% | 3.3 µM | 16.1% | 7.89% | 1.52% | 2.22% | 8.05% | 16% | -0.99% | – | – | – | – | –
O=c1nc(N2CCOCC2)oc2c(-c3cccc4c3sc3ccccc34)cccc12 | – | – | 12.4% | 24.8% | 15.1% | -2.77% | 15% | 27% | 11% | 170 | 25% | 5.8 µM | – | –
O=c1nc(N2CCOCC2)oc2c(-c3cccc4c3oc3ccccc34)cccc12 | – | – | 19.7% | 14.6% | 3.81% | 2.4% | 0.3% | 32% | 0.3% | – | 26% | 6.9 µM | – | –
O=c1nc(N2CCOCC2)oc2c(-c3ccsc3)cccc12 | – | 3 µM | 9.75% | 9.35% | -6.9% | 8.4% | 7.97% | 29% | 17.1% | – | – | 3.4 µM | – | –
O=c1nc(N2CCOCC2)oc2ccc(-c3cccc4c3sc3ccccc34)cc12 | 21% | – | 4.63% | 1.62% | 0.05% | 4.76% | -5.28% | 0% | 0.5% | – | 0% | – | 8% | 0%
